Results on 16 compounds are retold here after ChEMBL document CHEMBL4354855 (J Med Chem, 2020).

The structures appear in SMILES notation.

Data set [1] in a line: Half life in human plasma. In kind it is ADME, cell-free.
The nature of data set [2]: Stability of the compound in GSH assessed as parent compound remaining measured after 24 hrs. The format is physicochemical. The following applies: GSH (glutathione); read-out: Stability.
Data set [3] can be described thus: Intrinsic clearance in rat liver microsomes. The format is ADME, Microsome. The following applies: read-out: CLH.
The nature of data set [4]: Clearance in OFA-1 rat at 3 mg/kg, po. In kind it is ADME, organism-based. The settings on record: in vivo.
A short description of data set [5]: Oral bioavailability in C57BL/6 mouse at 3 mg/kg. In kind it is ADME, organism-based. The following applies: in vivo.
The nature of data set [6]: Drug level in OFA-1 rat at 1 mg/kg, po measured after 5 hrs. The format is ADME, organism-based. The settings on record: in vivo, read-out: Drug uptake.
Data set [7] in a line: Tmax in Lewis rat at 1 mg/kg, iv or 3 mg/kg, po. In kind it is ADME, organism-based. The following applies: in vivo.
Data set [8] can be described thus: Intrinsic clearance in dog liver microsomes. In kind it is ADME, Canis lupus familiaris, Microsome. The settings on record: read-out: CLH. On the technique in general: Microsomes from liver hold many membrane-bound enzymes, among them those of drug oxidation.
A short description of data set [9]: Dose normalized Cmax in Lewis rat at 1 mg/kg, iv or 3 mg/kg, po. The format is ADME, organism-based. The settings on record: in vivo.
Data set [10] can be described thus: Oral bioavailability in Lewis rat at 3 mg/kg. The format is ADME, organism-based. The settings on record: in vivo.
The nature of data set [11]: Clearance in Beagle dog at 1 mg/kg, iv or 3 mg/kg, po. The following applies: in vivo. The format is ADME, organism-based, Canis lupus familiaris.
The nature of data set [12]: Half life in Beagle dog at 1 mg/kg, iv or 3 mg/kg, po. The following applies: in vivo. In kind it is ADME, organism-based, Canis lupus familiaris.
A short description of data set [13]: Tmax in C57BL/6 mouse at 1 mg/kg, iv or 3 mg/kg, po. The settings on record: in vivo. The format is ADME, organism-based.
A short description of data set [14]: Dose normalized Cmax in C57BL/6 mouse at 1 mg/kg, iv or 3 mg/kg, po. The settings on record: in vivo. The format is ADME, organism-based.
Data set [15] is described as follows: Thermodynamic solubility of the compound at pH 6.8. The format is physicochemical. The settings on record: buffer, read-out: Therm_solubility.
A short description of data set [16]: Volume of distribution at steady state in C57BL/6 mouse at 1 mg/kg, iv or 3 mg/kg, po. The format is ADME, organism-based. The settings on record: in vivo, read-out: Vdss.
Data set [17] is described as follows: Clearance in Lewis rat at 1 mg/kg, iv or 3 mg/kg, po. The following applies: in vivo. The format is ADME, organism-based.
Data set [18] can be described thus: Half life in Lewis rat at 1 mg/kg, iv or 3 mg/kg, po. The format is ADME, organism-based. The settings on record: in vivo.
Data set [19] is described as follows: Oral bioavailability in Beagle dog at 3 mg/kg. In kind it is ADME, organism-based, Canis lupus familiaris. The following applies: in vivo.
Data set [20] is described as follows: Intrinsic clearance in mouse liver microsomes. The following applies: read-out: CLH. The format is ADME, Microsome.
Data set [21] is described as follows: Half life in C57BL/6 mouse at 1 mg/kg, iv or 3 mg/kg, po. The following applies: in vivo. The format is ADME, organism-based.
Data set [22] is described as follows: Dose normalized Cmax in Beagle dog at 1 mg/kg, iv or 3 mg/kg, po. The format is ADME, organism-based, Canis lupus familiaris. The following applies: in vivo.
Data set [23] is described as follows: Drug level in OFA-1 rat at 1 mg/kg, po measured after 0.5 hrs. The following applies: in vivo, read-out: Drug uptake. The format is ADME, organism-based.
Data set [24] is described as follows: Thermodynamic solubility of the compound at pH 1. The format is physicochemical. The settings on record: buffer, read-out: Therm_solubility.
The nature of data set [25]: Volume of distribution at steady state in Lewis rat at 1 mg/kg, iv or 3 mg/kg, po. In kind it is ADME, organism-based. The following applies: in vivo, read-out: Vdss.
Data set [26] is described as follows: Volume of distribution at steady state in Beagle dog at 1 mg/kg, iv or 3 mg/kg, po. In kind it is ADME, organism-based, Canis lupus familiaris. The settings on record: in vivo, read-out: Vdss.
Data set [27] in a line: Lipophilicity, log P of the compound. In kind it is physicochemical. The following applies: octanol/water.
Data set [28] is described as follows: Dose normalized AUC in Beagle dog at 3 mg/kg, po. The following applies: in vivo. The format is ADME, organism-based, Canis lupus familiaris.
Data set [29] can be described thus: Tmax in Beagle dog at 1 mg/kg, iv or 3 mg/kg, po. In kind it is ADME, organism-based, Canis lupus familiaris. The settings on record: in vivo.
A short description of data set [30]: Dose normalized AUC in Lewis rat at 3 mg/kg, po. The following applies: in vivo. The format is ADME, organism-based.
A short description of data set [31]: Dose normalized AUC in C57BL/6 mouse at 3 mg/kg, po. The format is ADME, organism-based. The settings on record: in vivo.
Data set [32] can be described thus: Clearance in C57BL/6 mouse at 1 mg/kg, iv or 3 mg/kg, po. The settings on record: in vivo. The format is ADME, organism-based.
Data set [33] is described as follows: Drug level in OFA-1 rat blood at 3 mg/kg, po measured after 5 hrs. In kind it is ADME, organism-based. The following applies: whole blood, read-out: Drug uptake.
The nature of data set [34]: Oral bioavailability in OFA-1 rat at 10 mg/kg. The format is ADME, organism-based. The settings on record: in vivo.
Data set [35] in a line: Drug level in OFA-1 rat blood at 10 mg/kg, po measured after 5 hrs. In kind it is ADME, organism-based. The following applies: whole blood, read-out: Drug uptake.

Take `C=CC(=O)N1CC[C@H]1COc1c(N)ncnc1-c1cc(F)cc(NC(=O)c2ccc(C3CC3)cc2F)c1C`: in [1], the half-life is 42 min.
On to `CC#CC(=O)N(C)CCOc1c(N)ncnc1-c1cc(F)cc(NC(=O)c2ccc(C3CC3)cc2F)c1C`, for which the remaining at 24 h in data set [2] stood at 79.6%.
For `C=CC(=O)N1CCC(Oc2c(N)ncnc2-c2cc(F)cc(NC(=O)c3ccc(C4CC4)cc3)c2C)C1` (stereo not drawn), the microsomal CLint in data set [3] was 135 µL/min/mg.
In the case of `C#CC(=O)N(C)CCOc1c(N)ncnc1-c1cc(F)cc(NC(=O)c2ccc(C3CC3)cc2F)c1C`, the half-life in data set [1] is 96 min. In addition, in [2], the remaining at 24 h was determined as 0.1%.
Consider `C=CC(=O)N(C)C/C=C/c1c(N)ncnc1-c1cc(F)cc(NC(=O)c2ccc(C3CC3)cc2)c1C`, for which, in [3], the microsomal CLint is 924 µL/min/mg.
With `C=CC(=O)N(C)CC/C=C/c1c(N)ncnc1-c1cc(F)cc(NC(=O)c2ccc(C3CC3)cc2)c1C`, the microsomal CLint in data set [3] turned out to be 815 µL/min/mg.
In turn, `C=CC(=O)N(C)C/C=C/c1c(N)ncnc1-c1cc(F)cc(NC(=O)c2ccc(C3CC3)cc2F)c1C` yielded a CL/F in data set [4] of 307 mL/min/kg. The half-life in data set [1] was above 120 min.
With `C=CC(=O)N1CCC[C@H]1COc1c(N)ncnc1-c1cc(F)cc(NC(=O)c2ccc(C3CC3)cc2F)c1C`, the half-life in data set [1] was above 120 min.
Turning to `Cc1c(NC(=O)c2ccc(C3CC3)cc2F)cc(F)cc1-c1ncnc(N)c1OCCN(C)C(=O)/C=C/CN(C)C`, the remaining at 24 h in data set [2] worked out at 60.8%.
Take `C=CC(=O)NCCOc1c(N)ncnc1-c1cc(F)cc(NC(=O)c2ccc(C3CC3)cc2F)c1C`: the half-life in data set [1] is above 120 min.
Regarding `C=CC(=O)N(C)CCOc1c(N)ncnc1-c1cc(F)cc(NC(=O)c2ccc(C3CC3)cc2F)c1C` [REMIBRUTINIB], the bioavailability in data set [5] was found to be 16%; in data set [10] it was 29%; in [19] it was 5%. For the same compound, the microsomal CLint in [3] amounted to 33 µL/min/mg; in data set [8], 146 µL/min/mg; in data set [20], 325 µL/min/mg. For the same compound, the concentration at 5 h in data set [6] stood at 5.6 nM. Further, the Tmax in data set [7] worked out at 18 min; in data set [13], 18 min; in [29], 48 min. The Cmax/dose is 148 nM in [9], 53 nM in [14] and 19 nM in data set [22]. In addition, the clearance in data set [11] came to 29 mL/min/kg; in data set [17], 44 mL/min/kg; in data set [32], 97 mL/min/kg. Moreover, the half-life in data set [12] was 54 min; in data set [18] it was 30 min; in data set [21] it was 60 min; in [1] it was above 120 min. Besides, the solubility thermodynamic in data set [15] is below 3 µg/mL; in data set [24], above 1500 µg/mL. The Vd is 1 L/kg in data set [16], 1.4 L/kg in data set [25] and 1 L/kg in data set [26]. Further, the concentration at 0.5 h in [23] was 49.1 nM. The compound also yielded a logP in [27] of 2.9. Further, the AUC/dose in data set [28] turned out to be 55 nM·h; in [30] it was 225 nM·h; in [31], 54 nM·h. Besides, in [2], the remaining at 24 h turned out to be 68.5%.
As to `C=CC(=O)N1CCC(Oc2c(N)ncnc2-c2cc(F)cc(NC(=O)c3ccc(C4CC4)cc3F)c2C)CC1`, in data set [33], the concentration at 5 h amounted to 207 nM. The half-life in [1] is above 120 min.
`C=CC(=O)N(CC)CCOc1c(N)ncnc1-c1cc(F)cc(NC(=O)c2ccc(C3CC3)cc2F)c1C` gave a half-life in [1] above 120 min. The lipophilicity (logP) in data set [27] was 3.6.
The compound `C=CC(=O)N1CC(Oc2c(N)ncnc2-c2cc(F)cc(NC(=O)c3ccc(C4CC4)cc3F)c2C)C1` registered a bioavailability in data set [34] of 51%. The half-life in data set [1] was 35 min.
Consider `C=CC(=O)N1CC(Oc2c(N)ncnc2-c2cc(F)cc(NC(=O)c3ccc(C4CC4)cc3)c2C)C1`, for which the bioavailability in data set [34] came to 5%. In data set [3], the microsomal CLint came out at 25 µL/min/mg. Also, the concentration at 5 h in [35] worked out at 13 nM.
On to `C/C=C/C(=O)N(C)CCOc1c(N)ncnc1-c1cc(F)cc(NC(=O)c2ccc(C3CC3)cc2F)c1C`, for which the remaining at 24 h in data set [2] turned out to be 95.8%.

Broadly, the half-life is how long it takes for the measured level to halve. For orientation: CL/F means the apparent clearance, not corrected for the fraction that reaches the circulation. As usually defined, the bioavailability is the share of a dose that reaches the circulation, judged against a reference dose that is usually intravenous. One may read the Tmax as the time at which the peak concentration occurs. A word on the logP: it is a log measure of how a compound divides between an organic and an aqueous phase.
